# Reference: patent publication US12534457B2, “Heteroaryl derivative compounds, and uses thereof” (Voronoi Inc., priority 2021, dated 2026)
# System: Ba/F3 cells expressing EGFR Del19/C797S (EGFR DC)
# Assay: Proliferation inhibitory activity, Ba/F3 cells expressing EGFR Del19/C797S (CellTiter-Glo)
# Type: cell-based
# Conditions: Mus musculus, BaF3, 72 hours of compound treatment
# Summary of the method: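 Viability after 72 h of compound exposure was measured by luminescence (CellTiter-Glo) in Ba/F3 lines transduced with mutant EGFR. Final concentrations spanned 0.2 nM–5 μM over 12 threefold steps. Growth relative to untreated control gave GI50 values; each test was run three times.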
row,Structure (SMILES),GI50 [nM]
1,"COc1cc(N2C[C@H]3C[C@@H]2CO3)ccc1Nc1cc(N2OCC[C@@H]2c2ccccc2)ncn1 [Example 59, N-(4-((1R,4R)-2-oxa-5-azabicyclo[2.2.1]heptan-5-yl)-2-methoxyphenyl)-6-((R)-3-phenylisoxazolidin-2-yl)pyrimidin-4-amine]",< 50
2,"CN1CCC2(CC1)CCN(c1ccc(Nc3cc(N4OCC[C@@H]4c4ccccc4)ncn3)cc1)CC2 [Example 135, (R)—N-(4-(9-methyl-3,9-diazaspiro[5.5]undecan-3-yl)phenyl)-6-(3-phenylisoxazolidin-2-yl)pyrimidin-4-amine]",< 50
3,"CN1CCN(c2ccc(Nc3cc(N4Oc5ccccc5C4c4ccccc4)ncn3)cc2)CC1 (stereo not shown) [Example 229, N-(4-(4-methylpiperazin-1-yl)phenyl)-6-(3-phenylbenzo[d]isoxazol-2(3H)-yl)pyrimidin-4-amine]",50 to 500
4,"CCN(CC)C1CCN(c2ccc(Nc3cc(N4OCC[C@@H]4c4ccccc4)ncn3)c(OC)c2)CC1 [Example 98, (R)—N-(4-(4-(diethylamino)piperidin-1-yl)-2-methoxyphenyl)-6-(3-phenylisoxazolidin-2-yl)pyrimidin-4-amine]",< 50
5,"C=CCN1CCN(C2CCN(c3ccc(Nc4cc(N5OCC[C@@H]5c5cccc(F)c5F)ncn4)c(OC)c3)CC2)CC1 [Example 206, (R)—N-(4-(4-(4-allylpiperazin-1-yl)piperidin-1-yl)-2-methoxyphenyl)-6-(3-(2,3-difluorophenyl)isoxazolidin-2-yl)pyrimidin-4-amine]",< 50
6,"CCN1CCN(C2CCN(c3ccc(Nc4cc(N5OCC[C@@H]5c5ccccc5)ncn4)c(OC)c3)CC2)CC1 [Example 118, (R)—N-(4-(4-(4-ethylpiperazin-1-yl)piperidin-1-yl)-2-methoxyphenyl)-6-(3-phenylisoxazolidin-2-yl)pyrimidin-4-amine]",< 50
7,"Cn1cc(Nc2cc(N3OCC[C@@H]3c3ccccc3)ncn2)cn1 [Example 133, (R)—N-(1-methyl-1H-pyrazol-4-yl)-6-(3-phenylisoxazolidin-2-yl)pyrimidin-4-amine]",50 to 500
8,"COc1cc(N2CCC(N3CC4(CN(C)C4)C3)CC2)ccc1Nc1cc(N2OCC[C@@H]2c2cccc(F)c2F)ncn1 [Example 211, (R)-6-(3-(2,3-difluorophenyl)isoxazolidin-2-yl)-N-(2-methoxy-4-(4-(6-methyl-2,6-diazaspiro[3.3]heptan-2-yl)piperidin-1-yl)phenyl)pyrimidin-4-amine]",< 50
9,"COc1cc(N2CCC(N3CCN(C)CC3)CC2)ccc1Nc1cc(N2OCC[C@@H]2c2ccc(C)nc2)ncn1 [Example 38, (R)—N-(2-methoxy-4-(4-(4-methylpiperazin-1-yl)piperidin-1-yl)phenyl)-6-(3-(6-methylpyridin-3-yl)isoxazolidin-2-yl)pyrimidin-4-amine]",50 to 500
10,"CN1CCN(C2CCN(c3c(F)cc(Nc4cc(N5OCC[C@@H]5c5ccccc5)ncn4)cc3F)CC2)CC1 [Example 123, (R)—N-(3,5-difluoro-4-(4-(4-methylpiperazin-1-yl)piperidin-1-yl)phenyl)-6-(3-phenylisoxazolidin-2-yl)pyrimidin-4-amine]",< 50
11,"CCN1CCN(C2CCN(c3ccc(Nc4cc(N5OCC[C@@H]5c5cccc(F)c5F)ncn4)c(OC)c3)CC2)CC1 [Example 207, (R)-6-(3-(2,3-difluorophenyl)isoxazolidin-2-yl)-N-(4-(4-(4-ethylpiperazin-1-yl)piperidin-1-yl)-2-methoxyphenyl)pyrimidin-4-amine]",< 50
12,"COc1nc(N2CCC(N3CCN(C)CC3)CC2)c(-c2cnn(C)c2)cc1Nc1cc(N2OCC[C@@H]2c2ccccc2)ncn1 [Example 147, (R)—N-(2-methoxy-5-(1-methyl-1H-pyrazol-4-yl)-6-(4-(4-methylpiperazin-1-yl)piperidin-1-yl)pyridin-3-yl)-6-(3-phenylisoxazolidin-2-yl)pyrimidin-4-amine]",< 50
13,"COc1cc(N2CCC(N3CCN(C)CC3)CC2)ccc1Nc1cc(N2OCC[C@@H]2c2ccccc2)nc(N)n1 [Example 111, (R)—N4-(2-methoxy-4-(4-(4-methylpiperazin-1-yl)piperidin-1-yl)phenyl)-6-(3-phenylisoxazolidin-2-yl)pyrimidin-2,4-diamine]",50 to 500
14,"CCC(=O)Nc1cc(Nc2cc(N3OCC[C@@H]3c3cc(F)cc(F)c3)ncn2)c(OC)cc1N1CCC(N2CCC(N(C)C)CC2)CC1 [Example 85, (R)—N-(5-((6-(3-(3,5-difluorophenyl)isoxazolidin-2-yl)pyrimidin-4-yl)amino)-2-(4-(dimethylamino)-[1,4′-bipiperidin]-1′-yl)-4-methoxyphenyl)propionamide]",< 50
15,"COc1cc(N2CCC(N3CCN(C)CC3)CC2)ccc1Nc1cc(N2OCC[C@@H]2c2cccc(C(F)F)c2)ncn1 [Example 184, (R)-6-(3-(3-(difluoromethyl)phenyl)isoxazolidin-2-yl)-N-(2-methoxy-4-(4-(4-methylpiperazin-1-yl)piperidin-1-yl)phenyl)pyrimidin-4-amine]",50 to 500
16,"COc1cc(N2CCC(N3CCN(C)CC3)CC2)ccc1Nc1cc(N2OCC[C@@H]2c2cccc(F)c2)ncn1 [Example 29, (R)-6-(3-(3-fluorophenyl)isoxazolidin-2-yl)-N-(2-methoxy-4-(4-(4-methylpiperazin-1-yl)piperidin-1-yl)phenyl)pyrimidin-4-amine]",< 50

row,Structure (SMILES),GI50 [nM]
1,"COc1cc2c(cc1Nc1cc(N3OCC[C@@H]3c3cccc(F)c3F)ncn1)C(=O)N(C)C2 [Example 193, (R)-6-((6-(3-(2,3-difluorophenyl)isoxazolidin-2-yl)pyrimidin-4-yl)amino)-5-methoxy-2-methylisoindolin-1-one]",50 to 500
2,"COc1cc(N2CCOCC2)ccc1Nc1cc(N2OCC[C@@H]2c2ccccc2)ncn1 [Example 110, (R)—N-(2-methoxy-4-morpholinophenyl)-6-(3-phenylisoxazolidin-2-yl)pyrimidin-4-amine]",< 50
3,"COc1cc(Nc2cc(N3OCC[C@@H]3c3cccc(Cl)c3F)ncn2)ccc1N1CCC(N2CCN(C)CC2)CC1 [Example 125, (R)-6-(3-(3-chloro-2-fluorophenyl)isoxazolidin-2-yl)-N-(3-methoxy-4-(4-(4-methylpiperazin-1-yl)piperidin-1-yl)phenyl)pyrimidin-4-amine]",< 50
4,"COc1cc(N2CCC(N3CCN(C)CC3)CC2)ccc1Nc1cc(N2OCC[C@@H]2c2cc(F)cc(F)c2)ncn1 [Example 21, (R)-6-(3-(3,5-difluorophenyl)isoxazolidin-2-yl)-N-(2-methoxy-4-(4-(4-methylpiperazin-1-yl)piperidin-1-yl)phenyl)pyrimidin-4-amine]",< 50
5,"c1ccc([C@H]2CCON2c2cc(Nc3ccc4c(c3)CC[C@H](N3CCCC3)CC4)ncn2)cc1 [Example 83, 6-((R)-3-phenylisoxazolidin-2-yl)-N—((R)-7-(pyrrolidin-1-yl)-6,7,8,9-tetrahydro-5H-benzo[7]annulen-2-yl)pyrimidin-4-amine]",< 50
6,"CN1Cc2cc(Nc3cc(N4OCC[C@@H]4c4ccccc4)ncn3)ccc2C1=O [Example 76, (R)-2-methyl-5-((6-(3-phenylisoxazolidin-2-yl)pyrimidin-4-yl)amino)isoindolin-1-one]",< 50
7,"COc1cc(N2CCC(N3CCN(C)C[C@@H]3C)CC2)ccc1Nc1cc(N2OCC[C@@H]2c2cccc(F)c2F)ncn1 [Example 216, 6-((R)-3-(2,3-difluorophenyl)isoxazolidin-2-yl)-N-(4-(4-((S)-2,4-dimethylpiperazin-1-yl)piperidin-1-yl)-2-methoxyphenyl)pyrimidin-4-amine]",< 50
8,"COc1cc(N2CCC(N3CCN(C)CC3)CC2)ccc1Nc1cc(N2OCC[C@@H]2c2cccc(F)c2F)ncn1 [Example 32, (R)-6-(3-(2,3-difluorophenyl)isoxazolidin-2-yl)-N-(2-methoxy-4-(4-(4-methylpiperazin-1-yl)piperidin-1-yl)phenyl)pyrimidin-4-amine]",< 50
9,"CC(C)[C@H]1CCON1c1cc(Nc2ccc(N3CCN(C)CC3)cc2)ncn1 [Example 235, (R)-6-(3-isopropylisoxazolidin-2-yl)-N-(4-(4-methylpiperazin-1-yl)phenyl)pyrimidin-4-amine]",< 50
10,"Fc1cc(F)cc([C@H]2CCON2c2cc(Nc3cccc4c3OCC4)ncn2)c1 [Example 159, (R)-6-(3-(3,5-difluorophenyl)isoxazolidin-2-yl)-N-(2,3-dihydrobenzofuran-7-yl)pyrimidin-4-amine]",50 to 500
11,"CCN1[C@H](C)CN(C2CCN(c3ccc(Nc4cc(N5OCC[C@@H]5c5cccc(F)c5F)ncn4)c(OC)c3)CC2)C[C@@H]1C [Example 215, 6-((R)-3-(2,3-difluorophenyl)isoxazolidin-2-yl)-N-(4-(4-((3S,5R)-4-ethyl-3,5-dimethylpiperazin-1-yl)piperidin-1-yl)-2-methoxyphenyl)pyrimidin-4-amine]",< 50
12,"COc1cc(Nc2cc(N3OCC[C@@H]3c3ccc(F)cc3F)ncn2)ccc1N1CCC(N2CCN(C)CC2)CC1 [Example 95, (R)-6-(3-(2,4-difluorophenyl)isoxazolidin-2-yl)-N-(3-methoxy-4-(4-(4-methylpiperazin-1-yl)piperidin-1-yl)phenyl)pyrimidin-4-amine]",< 50
13,"CCc1cc(Nc2cc(N3OCC[C@@H]3c3ccc(F)cc3)ncn2)c(OC)cc1N1CCC(N2CCN(C)CC2)CC1 [Example 91, (R)—N-(5-ethyl-2-methoxy-4-(4-(4-methylpiperazin-1-yl)piperidin-1-yl)phenyl)-6-(3-(4-fluorophenyl)isoxazolidin-2-yl)pyrimidin-4-amine]",< 50
14,"COc1cc(N2CCC(N3CCN(C)CC3)CC2)ccc1Nc1cc(N2OCC[C@@H]2c2cccc(C(=O)OC(C)C)c2)ncn1 [Example 100, isopropyl (R)-3-(2-(6-((2-methoxy-4-(4-(4-methylpiperazin-1-yl)piperidin-1-yl)phenyl)amino)pyrimidin-4-yl)isoxazolidin-3-yl)benzoate]",50 to 500
15,"Cc1cc(N2CCOCC2)ccc1Nc1cc(N2OCC[C@@H]2c2ccccc2)ncn1 [Example 108, (R)—N-(2-methyl-4-morpholinophenyl)-6-(3-phenylisoxazolidin-2-yl)pyrimidin-4-amine]",< 50
